Common to all, as to test: Large panel kinase profiling
Common to all, as to format: biochemical
Common to all, as to conditions: 1 μM test article, 1 mM ATP

One test concerns the target T1, TNK2/ACK (Homo sapiens, UniProt Q07912).
T1 construct: AssayQuant Technologies, Inc. (contract laboratory that ran the panel)
In a few lines:
(§1)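 Activity is measured in real time from the CSox sensor's fluorescence at 485 nm after 360 nm excitation, sampled every minute. Assays run at 30° C. with 1 mM ATP and a single 1 μM compound dose.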

Another test concerns the target T2, MAPK10/JNK3 (Homo sapiens, UniProt P53779).
T2 construct: AssayQuant Technologies, Inc. (service provider)
In a few lines:
as §1

A further test has as its target T3, EPHB4 (Homo sapiens, UniProt P54760).
T3 sequence (P54760 16-987): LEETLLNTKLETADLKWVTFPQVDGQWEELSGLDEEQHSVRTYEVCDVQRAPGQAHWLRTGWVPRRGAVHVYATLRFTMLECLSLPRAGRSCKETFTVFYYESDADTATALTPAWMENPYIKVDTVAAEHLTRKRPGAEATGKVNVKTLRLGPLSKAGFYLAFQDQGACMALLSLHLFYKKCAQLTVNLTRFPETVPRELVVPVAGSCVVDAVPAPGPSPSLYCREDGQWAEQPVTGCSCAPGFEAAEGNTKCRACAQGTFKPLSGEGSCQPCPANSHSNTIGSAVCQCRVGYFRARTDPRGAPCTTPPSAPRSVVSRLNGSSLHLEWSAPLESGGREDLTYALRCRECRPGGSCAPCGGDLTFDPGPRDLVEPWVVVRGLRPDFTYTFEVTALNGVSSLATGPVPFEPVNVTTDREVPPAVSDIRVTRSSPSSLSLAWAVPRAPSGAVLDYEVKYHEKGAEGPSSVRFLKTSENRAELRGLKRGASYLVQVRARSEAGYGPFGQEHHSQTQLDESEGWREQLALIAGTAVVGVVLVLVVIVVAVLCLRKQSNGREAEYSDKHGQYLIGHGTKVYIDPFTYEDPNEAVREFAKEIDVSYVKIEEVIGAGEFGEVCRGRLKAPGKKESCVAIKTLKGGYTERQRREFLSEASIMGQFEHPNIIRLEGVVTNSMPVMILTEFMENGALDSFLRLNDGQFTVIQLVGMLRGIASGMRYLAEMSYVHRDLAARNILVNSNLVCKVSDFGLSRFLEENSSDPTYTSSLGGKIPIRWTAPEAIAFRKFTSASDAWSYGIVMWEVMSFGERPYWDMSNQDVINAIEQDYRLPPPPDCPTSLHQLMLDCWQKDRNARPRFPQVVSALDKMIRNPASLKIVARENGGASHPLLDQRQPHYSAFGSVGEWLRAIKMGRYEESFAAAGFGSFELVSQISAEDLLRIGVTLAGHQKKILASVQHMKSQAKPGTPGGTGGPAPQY
In a few lines:
as §1

The target in another test is MAP3K10 (Homo sapiens, UniProt Q02779). In a few lines:
as §1

Another test deals with LRRK2 (Homo sapiens, UniProt Q5S007). In a few lines: as §1
In the next test the target is PRKAA1/AMPK111 (Homo sapiens, UniProt Q13131). In a few lines: as §1
In the next test the target is T4, DYRK2 (Homo sapiens, UniProt Q92630).
T4 construct: AssayQuant Technologies, Inc. (service laboratory)
T4 sequence (Q92630 1-601): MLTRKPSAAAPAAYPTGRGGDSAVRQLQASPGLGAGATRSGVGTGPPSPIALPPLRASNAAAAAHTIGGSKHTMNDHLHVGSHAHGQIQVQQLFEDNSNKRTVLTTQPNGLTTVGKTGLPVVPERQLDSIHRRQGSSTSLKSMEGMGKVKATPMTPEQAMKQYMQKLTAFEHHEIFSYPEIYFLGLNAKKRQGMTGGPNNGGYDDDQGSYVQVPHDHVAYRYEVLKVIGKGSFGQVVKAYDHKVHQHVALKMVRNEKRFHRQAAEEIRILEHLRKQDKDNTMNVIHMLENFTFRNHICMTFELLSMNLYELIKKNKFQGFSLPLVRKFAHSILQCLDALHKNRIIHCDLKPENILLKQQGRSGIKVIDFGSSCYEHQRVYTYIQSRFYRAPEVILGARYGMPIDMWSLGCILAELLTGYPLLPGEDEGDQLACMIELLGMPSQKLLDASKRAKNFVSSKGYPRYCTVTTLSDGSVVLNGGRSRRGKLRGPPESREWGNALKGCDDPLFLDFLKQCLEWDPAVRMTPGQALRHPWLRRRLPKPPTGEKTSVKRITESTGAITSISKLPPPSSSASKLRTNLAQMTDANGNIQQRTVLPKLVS
In a few lines:
as §1

For a further test, the target named is RET (Homo sapiens, UniProt P07949). In a few lines:
as §1

Another test deals with T5, MAPK7/ERK5 (Homo sapiens, UniProt Q13164).
T5 construct: AssayQuant Technologies, Inc. (service provider)
T5 sequence (Q13164 whole entry): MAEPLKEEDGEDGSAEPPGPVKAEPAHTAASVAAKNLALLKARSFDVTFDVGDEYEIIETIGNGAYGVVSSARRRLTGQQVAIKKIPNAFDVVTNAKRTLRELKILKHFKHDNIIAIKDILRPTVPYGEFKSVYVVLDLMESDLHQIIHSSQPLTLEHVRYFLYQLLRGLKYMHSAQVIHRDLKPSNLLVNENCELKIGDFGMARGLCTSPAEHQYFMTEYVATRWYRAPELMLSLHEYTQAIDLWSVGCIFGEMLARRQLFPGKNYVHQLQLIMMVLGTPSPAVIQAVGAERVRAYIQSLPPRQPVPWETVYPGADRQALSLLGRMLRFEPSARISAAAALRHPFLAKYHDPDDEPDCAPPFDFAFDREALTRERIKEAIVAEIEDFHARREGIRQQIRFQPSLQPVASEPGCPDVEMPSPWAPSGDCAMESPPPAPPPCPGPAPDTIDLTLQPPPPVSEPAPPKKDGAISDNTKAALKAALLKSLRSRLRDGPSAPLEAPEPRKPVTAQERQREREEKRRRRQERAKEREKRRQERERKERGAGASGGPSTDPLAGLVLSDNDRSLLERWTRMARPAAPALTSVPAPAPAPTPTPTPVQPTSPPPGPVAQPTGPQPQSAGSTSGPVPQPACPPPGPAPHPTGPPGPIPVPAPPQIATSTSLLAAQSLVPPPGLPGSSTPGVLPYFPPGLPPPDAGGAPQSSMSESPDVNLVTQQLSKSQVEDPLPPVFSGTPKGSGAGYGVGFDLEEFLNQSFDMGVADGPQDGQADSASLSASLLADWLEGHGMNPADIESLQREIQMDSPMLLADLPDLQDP
In a few lines:
as §1

The next test deals with T6, CLK2 (Homo sapiens, UniProt P49760).
T6 construct: AssayQuant Technologies, Inc. (service laboratory)
T6 sequence (P49760 whole entry, species assumed): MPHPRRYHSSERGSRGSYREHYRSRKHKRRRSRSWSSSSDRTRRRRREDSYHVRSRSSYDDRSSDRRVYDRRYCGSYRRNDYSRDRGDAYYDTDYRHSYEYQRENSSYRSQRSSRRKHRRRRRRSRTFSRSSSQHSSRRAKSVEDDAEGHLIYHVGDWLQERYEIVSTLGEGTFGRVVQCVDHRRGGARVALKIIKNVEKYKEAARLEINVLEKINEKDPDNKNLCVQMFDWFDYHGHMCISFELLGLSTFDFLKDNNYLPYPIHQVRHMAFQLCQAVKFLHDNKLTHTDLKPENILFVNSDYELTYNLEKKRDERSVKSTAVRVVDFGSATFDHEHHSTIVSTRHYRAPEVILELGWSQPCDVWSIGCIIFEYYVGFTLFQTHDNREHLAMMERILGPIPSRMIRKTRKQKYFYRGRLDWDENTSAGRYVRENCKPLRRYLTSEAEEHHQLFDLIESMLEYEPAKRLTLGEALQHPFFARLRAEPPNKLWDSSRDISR
In a few lines:
as §1

A further test concerns the target T7, CSK (Homo sapiens, UniProt P41240).
T7 construct: AssayQuant Technologies, Inc. (service laboratory)
In a few lines:
as §1

The next test concerns the target T8, MAPKAPK3/MK3 (Homo sapiens, UniProt Q16644).
T8 construct: AssayQuant Technologies, Inc. (service provider)
In a few lines: as §1

In another test the target is T9, MAPK8/JNK1 (Homo sapiens, UniProt P45983).
T9 construct: AssayQuant Technologies, Inc. (service provider)
T9 sequence (P45983 whole entry): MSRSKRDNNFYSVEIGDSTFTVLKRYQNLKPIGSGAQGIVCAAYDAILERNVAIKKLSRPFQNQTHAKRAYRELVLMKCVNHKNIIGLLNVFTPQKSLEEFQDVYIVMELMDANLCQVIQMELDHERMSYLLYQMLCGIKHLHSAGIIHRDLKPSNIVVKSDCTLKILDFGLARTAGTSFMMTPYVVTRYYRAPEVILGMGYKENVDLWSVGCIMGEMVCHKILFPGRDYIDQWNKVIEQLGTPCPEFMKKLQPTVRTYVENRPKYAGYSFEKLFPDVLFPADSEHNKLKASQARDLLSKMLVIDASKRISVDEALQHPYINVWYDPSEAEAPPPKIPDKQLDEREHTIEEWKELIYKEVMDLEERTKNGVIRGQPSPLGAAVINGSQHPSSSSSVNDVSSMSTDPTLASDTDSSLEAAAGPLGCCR
In a few lines: as §1

A further test concerns the target T10, TNIK (Homo sapiens, UniProt Q9UKE5).
T10 construct: AssayQuant Technologies, Inc. (contract laboratory that ran the panel)
In a few lines: as §1

Another test addresses T11, FYNA (Homo sapiens, UniProt P06241).
T11 construct: AssayQuant Technologies, Inc. (service provider)
In a few lines:
as §1

T1 sequence (Q07912 whole entry): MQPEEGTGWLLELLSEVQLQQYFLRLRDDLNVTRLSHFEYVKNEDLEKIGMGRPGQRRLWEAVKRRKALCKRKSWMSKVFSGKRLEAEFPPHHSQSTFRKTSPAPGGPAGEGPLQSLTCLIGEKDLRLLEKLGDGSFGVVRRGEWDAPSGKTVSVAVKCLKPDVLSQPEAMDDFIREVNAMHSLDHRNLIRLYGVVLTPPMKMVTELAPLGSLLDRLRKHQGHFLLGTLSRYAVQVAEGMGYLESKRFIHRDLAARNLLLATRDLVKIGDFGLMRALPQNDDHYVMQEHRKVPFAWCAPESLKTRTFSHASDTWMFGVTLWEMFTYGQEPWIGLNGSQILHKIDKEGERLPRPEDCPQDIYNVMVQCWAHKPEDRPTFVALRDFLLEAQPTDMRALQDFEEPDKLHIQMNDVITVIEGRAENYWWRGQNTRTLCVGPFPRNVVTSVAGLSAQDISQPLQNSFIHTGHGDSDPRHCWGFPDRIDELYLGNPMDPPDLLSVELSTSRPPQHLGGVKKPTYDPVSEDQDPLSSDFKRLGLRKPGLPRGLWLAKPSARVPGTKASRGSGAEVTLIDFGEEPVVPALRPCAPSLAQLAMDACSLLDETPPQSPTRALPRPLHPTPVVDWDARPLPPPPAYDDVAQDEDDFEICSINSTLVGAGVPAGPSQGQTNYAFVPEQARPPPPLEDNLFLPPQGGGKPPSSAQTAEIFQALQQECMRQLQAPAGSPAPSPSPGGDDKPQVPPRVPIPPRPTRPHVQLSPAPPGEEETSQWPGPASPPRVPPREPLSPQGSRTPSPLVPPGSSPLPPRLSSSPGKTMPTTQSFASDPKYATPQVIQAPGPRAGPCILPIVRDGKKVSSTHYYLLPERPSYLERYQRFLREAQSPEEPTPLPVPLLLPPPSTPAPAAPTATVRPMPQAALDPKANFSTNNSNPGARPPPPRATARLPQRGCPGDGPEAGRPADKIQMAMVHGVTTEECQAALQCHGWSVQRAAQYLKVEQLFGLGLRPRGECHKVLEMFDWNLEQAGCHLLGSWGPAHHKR
T8 sequence (Q16644 whole entry): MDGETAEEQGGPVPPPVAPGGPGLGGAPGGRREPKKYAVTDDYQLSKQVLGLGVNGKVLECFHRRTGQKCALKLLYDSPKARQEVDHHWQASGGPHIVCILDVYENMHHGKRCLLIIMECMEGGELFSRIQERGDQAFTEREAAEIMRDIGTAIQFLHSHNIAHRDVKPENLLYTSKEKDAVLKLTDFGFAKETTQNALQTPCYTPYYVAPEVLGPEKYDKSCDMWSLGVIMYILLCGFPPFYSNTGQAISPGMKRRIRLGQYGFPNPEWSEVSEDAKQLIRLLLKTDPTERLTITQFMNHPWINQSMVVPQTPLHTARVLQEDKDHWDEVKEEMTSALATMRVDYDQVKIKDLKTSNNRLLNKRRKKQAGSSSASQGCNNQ
T11 sequence (P06241 whole entry): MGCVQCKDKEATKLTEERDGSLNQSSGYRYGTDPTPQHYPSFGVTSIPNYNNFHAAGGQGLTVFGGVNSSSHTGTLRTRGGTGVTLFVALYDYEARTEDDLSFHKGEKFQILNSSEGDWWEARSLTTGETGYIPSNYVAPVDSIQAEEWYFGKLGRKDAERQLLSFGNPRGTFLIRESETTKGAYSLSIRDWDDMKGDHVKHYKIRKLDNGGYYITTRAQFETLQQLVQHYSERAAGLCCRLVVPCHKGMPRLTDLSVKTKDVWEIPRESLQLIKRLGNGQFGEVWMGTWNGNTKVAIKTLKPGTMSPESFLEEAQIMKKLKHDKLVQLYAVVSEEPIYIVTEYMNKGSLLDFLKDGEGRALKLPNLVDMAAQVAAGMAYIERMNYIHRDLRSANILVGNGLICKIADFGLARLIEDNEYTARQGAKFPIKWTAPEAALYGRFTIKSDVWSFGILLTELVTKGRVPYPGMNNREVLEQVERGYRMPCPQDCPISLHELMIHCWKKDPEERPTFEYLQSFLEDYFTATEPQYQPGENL
T7 sequence (P41240 whole entry, species assumed): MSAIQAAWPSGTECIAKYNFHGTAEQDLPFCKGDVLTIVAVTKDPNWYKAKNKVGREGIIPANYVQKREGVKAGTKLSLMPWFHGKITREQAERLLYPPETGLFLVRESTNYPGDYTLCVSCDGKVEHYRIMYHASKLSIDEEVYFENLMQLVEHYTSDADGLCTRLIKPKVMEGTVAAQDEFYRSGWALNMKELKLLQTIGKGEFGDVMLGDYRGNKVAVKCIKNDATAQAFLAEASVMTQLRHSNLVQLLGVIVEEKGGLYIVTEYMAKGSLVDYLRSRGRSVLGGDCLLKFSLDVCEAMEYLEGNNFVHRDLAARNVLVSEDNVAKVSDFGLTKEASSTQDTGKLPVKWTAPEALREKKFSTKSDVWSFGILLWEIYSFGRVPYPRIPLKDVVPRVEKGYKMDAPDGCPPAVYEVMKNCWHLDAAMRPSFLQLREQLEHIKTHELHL
T2 sequence (P53779 whole entry): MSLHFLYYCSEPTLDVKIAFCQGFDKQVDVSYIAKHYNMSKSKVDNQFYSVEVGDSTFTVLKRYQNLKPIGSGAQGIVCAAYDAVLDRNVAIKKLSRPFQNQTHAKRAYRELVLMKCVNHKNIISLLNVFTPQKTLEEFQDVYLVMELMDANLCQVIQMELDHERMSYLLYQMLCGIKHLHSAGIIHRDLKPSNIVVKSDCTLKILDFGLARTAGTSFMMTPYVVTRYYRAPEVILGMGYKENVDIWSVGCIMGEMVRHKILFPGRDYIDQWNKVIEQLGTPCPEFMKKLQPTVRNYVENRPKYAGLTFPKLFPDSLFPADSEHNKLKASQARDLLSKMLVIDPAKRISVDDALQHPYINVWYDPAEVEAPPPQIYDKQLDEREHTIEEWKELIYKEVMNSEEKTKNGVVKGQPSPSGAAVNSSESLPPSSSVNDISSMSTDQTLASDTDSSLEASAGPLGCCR

A word on the inhibition: it is the change of the read-out against control, counted positive when it falls. Consider `C=CC(=O)N1CCC[C@@H](c2c(F)cc(C(N)=O)c3[nH]c4c(c23)CCC4)C1` [Compound 10-2, (S)-8-(1-acryloylpiperidin-3-yl)-7-fluoro-1,2,3,4-tetrahydrocyclo-penta[b]indole-5-carboxamide], for which the inhibition at 1 µM was 2% against TNK2/ACK; -4% on MAPK10/JNK3; -8.5% on EPHB4; -17.7% against MAP3K10; -7.2% against LRRK2; 2.2% on PRKAA1/AMPK111. Moreover, the inhibition at 1 µM is 0.3% at DYRK2; 6% against RET; -4.3% at MAPK7/ERK5; -3.2% against CLK2; -8.5% at CSK; -42.3% on MAPKAPK3/MK3. The inhibition at 1 µM against MAPK8/JNK1 was 13.6%; at TNIK, -22.9%; at FYNA, -24.6%.

For the molecule `C=CC(=O)N1CCCC(c2c(F)cc(C(N)=O)c3[nH]c4c(c23)CCCCC4)C1` (single isomer, unassigned) [Compound 5-6], the inhibition at 1 µM against TNK2/ACK was -8.3%; against MAPK10/JNK3 it was -13%; on EPHB4 it was 7%; at MAP3K10, -8.6%; at LRRK2, -8.9%; on PRKAA1/AMPK111, -13.5%. Moreover, the inhibition at 1 µM was 6.1% at DYRK2; -24% on RET; -0.7% at MAPK7/ERK5; 0.7% at CLK2; -9.4% at CSK; 2.1% at MAPKAPK3/MK3. The results for the inhibition at 1 µM on MAPK8/JNK1, against TNIK and on FYNA were -0.6%, 9.9% and 12%, respectively.

For the molecule `C=CC(=O)N1CCC[C@@H](c2c(F)cc(C(N)=O)c3[nH]c4c(c23)CC2(CC4)CC2)C1` [Compound 6-2, (S)-5-(1-acryloylpiperidin-3-yl)-6-fluoro-1,2,4,9-tetrahydrospiro[carbazole-3,1′-cyclopropane]-8-carboxamide], the inhibition at 1 µM on TNK2/ACK was 13.4%; against MAPK10/JNK3, 32.1%; against EPHB4, 7.4%; against MAP3K10, 18.9%; against LRRK2 it was -2.7%; against PRKAA1/AMPK111 it was 13.2%. Moreover, the inhibition at 1 µM at DYRK2 was 13.3%; against RET, 23%; against MAPK7/ERK5, 9.4%; against CLK2, -4.6%; on CSK, -6.4%; against MAPKAPK3/MK3 it was 1.5%. The inhibition at 1 µM against MAPK8/JNK1 was 21.7%; at TNIK, -29.3%; on FYNA, -5.2%.

These data come from patent publication US20220009920A1 (GB005, Inc., priority 2020, published 2022).
